Target: T1, human full length HSD11 β 1 (Homo sapiens, UniProt P28845)
T1 construct: transient expression of human full length HSD11 β 1 expression vector; host or cells: CHO cells (transient transfection)
Test: In Vitro HSD11β1 Inhibition Assay
Type: cell-based
Details: CHO cells transiently expressing human HSD11β1; 200 nM cortisone+500 uM NADPH overnight; cortisone to cortisol by LC/MS-MS; read-out: 11βHSD1 (IC50)
Method in brief: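 CHO cells transiently transfected with human full-length HSD11β1 were re-seeded after 24 h and, 24 h later, incubated overnight with 200 nM cortisone plus 500 uM NADPH and inhibitor. Cortisone-to-cortisol conversion was measured by LC/MS-MS. IC50 from an 8-point log concentration–inhibition curve.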

T1 sequence (P28845 whole entry): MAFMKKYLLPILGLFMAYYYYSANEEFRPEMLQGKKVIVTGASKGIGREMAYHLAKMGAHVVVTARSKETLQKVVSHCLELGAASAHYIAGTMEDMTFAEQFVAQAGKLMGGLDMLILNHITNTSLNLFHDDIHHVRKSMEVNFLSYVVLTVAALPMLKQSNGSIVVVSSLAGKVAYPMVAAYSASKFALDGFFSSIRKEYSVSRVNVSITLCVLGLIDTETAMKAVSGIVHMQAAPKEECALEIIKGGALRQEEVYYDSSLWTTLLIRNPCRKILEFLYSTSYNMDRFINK

Structure (SMILES) | IC50
O=C(O)C1CCN(C(=O)CC(c2ccccc2)n2nnc3ccccc32)C2CCCCC12 (single isomer, unassigned) [Example 181, 1-[3-(1H-benzotriazol-1-yl)-3-phenylpropanoyl]decahydroquinoline-4-carboxylic acid] | > 0.25 µM
CC(CC(=O)N1CCCC2C(C(=O)O)CCCC21)c1c[nH]c2nccc(C3CC3)c12 (centres unmarked) [Compound 205, 1-[3-(4-cyclopropyl-1H-pyrrolo[2,3-b]pyridin-3-yl)butanoyl]decahydroquinoline-5-carboxylic acid] | > 0.25 µM
Cc1cc(-c2cccc3[nH]cc(C(C)CC(=O)N4CCCC5C(C(=O)O)CCCC54)c23)on1 (centres unmarked) [Compound 239, 1-{3-[4-(3-methyl-1,2-oxazol-5-yl)-1H-indol-3-yl]butanoyl}decahydroquinoline-5-carboxylic acid] | > 0.25 µM
CC(C(=O)N1CCCC2C(C(=O)O)CCCC21)c1c[nH]c2cccc(C3CC3)c12 (centres unmarked) [Compound 267, 1-(2-(4-cyclopropyl-1H-indol-3-yl)propanoyl)decahydroquinoline-5-carboxylic acid] | > 0.25 µM
CC(CC(=O)N1CCOC2CCCCC21)c1c[nH]c2cccc(F)c12 (centres unmarked) [Example 136, 3-(4-fluoro-1H-indol-3-yl)-1-(octahydro-4H-1,4-benzoxazin-4-yl)butan-1-one] | > 0.25 µM
CC(CC(=O)N1CCCC2C(C(=O)O)CCCC21)c1cn(C)c2cccc(C3CC3)c12 (centres unmarked) [Compound 204, 1-[3-(4-cyclopropyl-1-methyl-1H-indol-3-yl)butanoyl]decahydroquinoline-5-carboxylic acid] | < 0.1 µM
Cc1cccc2[nH]cc(C(C)CC(=O)N3CCCC4(O)CCCCC34)c12 (centres unmarked) [Example 132, 1-(4a-hydroxyoctahydroquinolin-1(2H)-yl)-3-(4-methyl-1H-indol-3-yl)butan-1-one] | 0.15 to 0.2 µM
CC(CC(=O)N1CCCC2C(C(=O)O)CCCC21)c1c[nH]c2cccc(-c3ccc(F)o3)c12 (single isomer, unassigned) [Compound 251, 1-{3-[4-(5-fluorofuran-2-yl)-1H-indol-3-yl]butanoyl}decahydroquinoline-5-carboxylic acid] | < 0.1 µM
CC1CC2CCCCC2N(C(=O)CCc2c[nH]c3ccccc23)C1 (centres unmarked) [Compound 37, 3-(1H-indol-3-yl)-1-(3-methyloctahydroquinolin-1(2H)-yl)propan-1-one] | > 0.25 µM
CC(CC(=O)N1C(C)CCC2CCCCC21)c1c[nH]c2ccc(F)cc12 (centres unmarked) [Example 92, 3-(5-fluoro-1H-indol-3-yl)-1-(2-methyloctahydroquinolin-1(2H)-yl)butan-1-one] | 0.1 to 0.15 µM
CC(CC(=O)N1CCCC2C(C(=O)O)CCCC21)c1c[nH]c2cccc(-c3ccco3)c12 (centres unmarked) [Compound 222, 1-{3-[4-(furan-2-yl)-1H-indol-3-yl]butanoyl}decahydroquinoline-5-carboxylic acid] | 0.1 to 0.15 µM
O=C(O)C1CCCC2C1CCCN2C(=O)CC(c1cccs1)c1c[nH]c2cccc(Cl)c12 (centres unmarked) [Compound 206, 1-[3-(4-chloro-1H-indol-3-yl)-3-(thiophen-2-yl)propanoyl]decahydroquinoline-5-carboxylic acid] | < 0.1 µM
O=C(CCc1c[nH]c2ccccc12)N1CCCC2=C1CCCC2 [Compound 48, 1-(3,4,5,6,7,8-hexahydroquinolin-1(2H)-yl)-3-(1H-indol-3-yl)propan-1-one] | > 0.25 µM
Cc1cccc2c1c(C(C)CC(=O)N1CCCC3C(C(=O)O)CCCC31)cn2C (centres unmarked) [Compound 207, 1-[3-(1,4-dimethyl-1H-indol-3-yl)butanoyl]decahydroquinoline-5-carboxylic acid] | > 0.25 µM
CC(CC(=O)N1CCCC2C(C(=O)O)CCCC21)c1c[nH]c2cccc(-c3ccc(F)o3)c12 (single isomer, unassigned) [Compound 248, 1-{3-[4-(5-fluorofuran-2-yl)-1H-indol-3-yl]butanoyl}decahydroquinoline-5-carboxylic acid] | < 0.1 µM
CC(C)C(CC(=O)N1CCC(C(=O)O)C2CCCCC21)c1c[nH]c2ccccc12 (centres unmarked) [Example 105, 1-[3-(1H-indol-3-yl)-4-methylpentanoyl]decahydroquinoline-4-carboxylic acid] | > 0.25 µM
O=C(O)C1CCN(C(=O)CC(c2ccccc2)c2c[nH]c3cc(F)ccc23)C2CCCCC12 (single isomer, unassigned) [Example 160, 1-[3-(6-fluoro-1H-indol-3-yl)-3-phenylpropanoyl]decahydroquinoline-4-carboxylic acid] | > 0.25 µM
O=C(O)C1CCCC2C1CCCN2C(=O)CSc1c[nH]c2cccc(C3CC3)c12 (centres unmarked) [Compound 260, 1-{[(4-cyclopropyl-1H-indol-3-yl)sulfanyl]acetyl}decahydroquinoline-5-carboxylic acid] | > 0.25 µM
O=C(O)C1CCN(C(=O)CC(c2ccc(F)cc2)c2c[nH]c3cccc(F)c23)C2CCCCC12 (single isomer, unassigned) [Compound 225, 1-[3-(4-fluoro-1H-indol-3-yl)-3-(4-fluorophenyl)propanoyl]decahydroquinoline-4-carboxylic acid] | < 0.1 µM

Structure (SMILES) | IC50
CC(CC(=O)N1CCC[C@H]2CCCC[C@@H]21)c1c[nH]c2cccc(Cl)c12 (stereo partly drawn) [Example 126, 3-(4-chloro-1H-indol-3-yl)-1-[trans-(4a,8a)-octahydroquinolin-1(2H)-yl]butan-1-one] | > 0.25 µM
O=C(CCc1c[nH]c2ccccc12)N1CCCC2CCCCC21 (centres unmarked) [Example 93, 3-(1H-indol-3-yl)-1-(octahydroquinolin-1(2H)-yl)propan-1-one] | < 0.1 µM
CC(CC(=O)N1CCC(C(=O)O)C2CCCCC21)c1nc2ccccc2s1 (centres unmarked) [Example 154, 1-[3-(1,3-benzothiazol-2-yl)butanoyl]decahydroquinoline-4-carboxylic acid] | > 0.25 µM
CC(CC(=O)N1CCCC2(CO)CCCCC12)c1c[nH]c2ccccc12 (centres unmarked) [Example 131, 1-[4a-(hydroxymethyl)octahydroquinolin-1(2H)-yl]-3-(1H-indol-3-yl)butan-1-one] | > 0.25 µM
O=C1CCN(C(=O)CCc2c[nH]c3cc(F)ccc23)C2CCCCC12 (centres unmarked) [Compound 43, 1-[3-(6-fluoro-1H-indol-3-yl)propanoyl]octahydroquinolin-4(1H)-one] | > 0.25 µM
CC(CC(=O)N1CCCC2C(C(=O)O)CCCC21)c1c[nH]c2cccc(C3CC3)c12 (single isomer, unassigned) [Compound 200, 1-[3-(4-cyclopropyl-1H-Indol-3-yl)butanoyl]decahydroquinoline-5-carboxylic acid] | < 0.1 µM
CC(CC(=O)N1CCCC2C(C(=O)O)CCCC21)c1c[nH]c2cccc(C3CC3)c12 (single isomer, unassigned) [Compound 195, 1-[3-(4-cyclopropyl-1H-indol-3-yl)butanoyl]decahydroquinoline-5-carboxylic acid] | < 0.1 µM
O=C(O)C1CCCC2C1CCCN2C(=O)CC(c1cccs1)c1c[nH]c2cccc(Cl)c12 (single isomer, unassigned) [Compound 218, 1-[3-(4-chloro-1H-indol-3-yl)-3-(thiophen-2-yl)propanoyl]decahydroquinoline-5-carboxylic acid] | < 0.1 µM
CC(CC(=O)N1CCCC2CCCCC21)n1nnc2c(Cl)cccc21 (centres unmarked) [Example 166, 3-(4-chloro-1H-benzotriazol-1-yl)-1-(octahydroquinolin-1(2H)-yl)butan-1-one] | > 0.25 µM
CC(CC(=O)N1CCCC2C(C(=O)O)CCCC21)c1c(C#N)[nH]c2cccc(C3CC3)c12 (centres unmarked) [Compound 252, 1-[3-(2-cyano-4-cyclopropyl-1H-indol-3-yl)butanoyl]decahydroquinoline-5-carboxylic acid] | > 0.25 µM
O=C(O)C1CCC2CCCCC2N1C(=O)CC(c1cccs1)c1c[nH]c2cccc(F)c12 (centres unmarked) [Example 170, 1-[3-(4-fluoro-1H-indol-3-yl)-3-(thiophen-2-yl)propanoyl]decahydroquinoline-2-carboxylic acid] | > 0.25 µM
Cc1cccc2c1c(CCC(=O)N1CCO[C@@H]3CCCC[C@H]31)cn2C (single isomer, unassigned) [Compound 65, 3-(1,4-dimethyl-1H-Indol-3-yl)-1-[trans-(4a,8a)-octahydro-4H-1,4-benzoxazin-4-yl]propan-1-one] | > 0.25 µM
CC(CC(=O)N1CCCC2CC(C(=O)O)CCC21)c1c[nH]c2cccc(Cl)c12 (centres unmarked) [Compound 228, 1-[3-(4-chloro-1H-indol-3-yl)butanoyl]decahydroquinoline-6-carboxylic acid] | > 0.25 µM
CC(C)C(CC(=O)N1CCC(C(=O)O)C2CCCCC21)c1c[nH]c2ncccc12 (centres unmarked) [Example 163, 1-[4-methyl-3-(1H-pyrrolo[2,3-b]pyridin-3-yl)pentanoyl]decahydro quinoline-4-carboxylic acid] | > 0.25 µM
O=C(CCc1c[nH]c2ccccc12)N1CCO[C@@H]2CCCCC21 (stereo partly drawn) [Compound 61, 3-(1H-indol-3-yl)-1-[(trans-4a,8a)-octahydro-4H-1,4-benzoxazin-4-yl]propan-1-one] | > 0.25 µM
CCn1cc(CCC(=O)N2CCCC3CCCCC32)c2c(C)cccc21 (centres unmarked) [Compound 33, 3-(1-ethyl-4-methyl-1H-indol-3-yl)-1-(octahydroquinolin-1(2H)-yl)propan-1-one] | > 0.25 µM
CC(CC(=O)N1CCCC2CCCCC21)c1cn(C)c2ccccc12 (centres unmarked) [Example 94, 3-(1-methyl-1H-indol-3-yl)-1-(octahydroquinolin-1(2H)-yl)butan-1-one] | 0.15 to 0.2 µM
O=C(CCc1c[nH]c2cc(F)ccc12)N1CCCC2CCCCC21 (centres unmarked) [Compound 39, 3-(6-fluoro-1H-indol-3-yl)-1-(octahydroquinolin-1(2H)-yl)propan-1-one] | > 0.25 µM
CCOC(=O)C12CCCCC1N(C(=O)CC(C)c1c[nH]c3cccc(Cl)c13)CCC2 (centres unmarked) [Example 127, ethyl 1-[3-(4-chloro-1H-indol-3-yl)butanoyl]octahydroquinoline-4a(2H)-carboxylate] | > 0.25 µM

Source: patent US9453014B2, “Cyclic amide derivatives as inhibitors of 11-β-hydroxysteroid dehydrogenase and uses thereof” (CONNEXIOS LIFE SCIENCES PVT. LTD., priority 2011, dated 2016)
